In ChEMBL document CHEMBL1146150, “Synthesis and antibacterial activity of novel neamine derivatives” (2006):
Values after ≈ are worked out from the molar mass of the structure shown.

Legend:
Type in all cases: functional
[1] = tested on: Staphylococcus aureus; experiment: Antibacterial activity against gentamycin and arbekacin-resistant Staphylococcus aureus MF490 expressing AAD(4'), AAC(6')-APH(2'') enzymes by twofold agar dilution method
[2] = tested on: Staphylococcus aureus; experiment: Antibacterial activity against Staphylococcus aureus RN4220 by twofold agar dilution method
[3] = tested on: Staphylococcus aureus; experiment: Antibacterial activity against gentamycin and arbekacin-resistant Staphylococcus aureus RN4220/pMF490 expressing AAC(6')-APH(2'') enzyme by twofold agar dilution method
[4] = tested on: Pseudomonas aeruginosa; experiment: Antibacterial activity against Pseudomonas aeruginosa GN3054 expressing AAC(3)-I by twofold agar dilution method
[5] = tested on: Escherichia coli; experiment: Antibacterial activity against Escherichia coli NIH JC2 by twofold agar dilution method
[6] = tested on: Pseudomonas aeruginosa; experiment: Antibacterial activity against Pseudomonas aeruginosa PAO1 by twofold agar dilution method
[7] = tested on: Staphylococcus aureus; experiment: Antibacterial activity against Staphylococcus aureus RN4220/pCR1948 expressing AAC(6')-APH(2'') enzyme by twofold agar dilution method
[8] = tested on: Pseudomonas aeruginosa; experiment: Antibacterial activity against Pseudomonas aeruginosa GN4925 expressing AAC(6')-Ib by twofold agar dilution method
[9] = tested on: Staphylococcus aureus; experiment: Antibacterial activity against Staphylococcus aureus RN4220/pMS520 expressing AAD(4')-I enzyme by twofold agar dilution method

In the case of NCCCNC(=O)O[C@@H]1[C@@H](O)[C@H](O[C@H]2O[C@H](CN)CC[C@H]2N)[C@@H](N)C[C@H]1NC(=O)[C@@H](O)CCN, the MIC [1] is reported as 64 µg/mL (≈ 130 µM), the MIC [2] is reported as 16 µg/mL (≈ 32.5 µM) and the MIC [3] is reported as 16 µg/mL (≈ 32.5 µM). The MIC [4] was 128 µg/mL (≈ 260 µM), the MIC [5] was 64 µg/mL (≈ 130 µM) and the MIC [6] was 32 µg/mL (≈ 65.1 µM). The MIC [7] was 16 µg/mL (≈ 32.5 µM), the MIC [8] was 128 µg/mL (≈ 260 µM) and the MIC [9] was 16 µg/mL (≈ 32.5 µM).
Molecule NCCNC(=O)O[C@@H]1[C@@H](O)[C@H](O[C@H]2O[C@H](CN)CC[C@H]2N)[C@@H](N)C[C@H]1NC(=O)[C@@H](O)CCN has an MIC [1] of 32 µg/mL (≈ 67 µM), an MIC [2] of 8 µg/mL (≈ 16.8 µM) and an MIC [3] of 16 µg/mL (≈ 33.5 µM). For the same molecule, the MIC [4] was > 32 µg/mL, the MIC [5] was 32 µg/mL (≈ 67 µM) and the MIC [6] was > 32 µg/mL. For the same molecule, the MIC [7] was 8 µg/mL (≈ 16.8 µM), the MIC [8] was > 32 µg/mL and the MIC [9] was 8 µg/mL (≈ 16.8 µM).
NCCNC(=O)O[C@@H]1[C@@H](O)[C@H](NC(=O)[C@@H](O)CCN)C[C@H](N)[C@H]1O[C@H]1O[C@H](CN)CC[C@H]1N gave an MIC [1] of 8 µg/mL (≈ 16.8 µM), an MIC [2] of 2 µg/mL (≈ 4.19 µM) and an MIC [3] of 2 µg/mL (≈ 4.19 µM). It also gave an MIC [4] of 16 µg/mL (≈ 33.5 µM), an MIC [5] of 8 µg/mL (≈ 16.8 µM) and an MIC [6] of 8 µg/mL (≈ 16.8 µM). The MIC [7] was 2 µg/mL (≈ 4.19 µM), the MIC [8] was 8 µg/mL (≈ 16.8 µM) and the MIC [9] was 2 µg/mL (≈ 4.19 µM).
NCCCNC(=O)O[C@@H]1[C@@H](O)[C@H](NC(=O)[C@@H](O)CCN)C[C@H](N)[C@H]1O[C@H]1O[C@H](CN)CC[C@H]1N was tested, and the MIC [1] was 128 µg/mL (≈ 260 µM), the MIC [2] was 16 µg/mL (≈ 32.5 µM) and the MIC [3] was 32 µg/mL (≈ 65.1 µM). The MIC [4] was 64 µg/mL (≈ 130 µM), the MIC [5] was 32 µg/mL (≈ 65.1 µM) and the MIC [6] was 32 µg/mL (≈ 65.1 µM). For the same molecule, the MIC [7] was 16 µg/mL (≈ 32.5 µM), the MIC [8] was 128 µg/mL (≈ 260 µM) and the MIC [9] was 16 µg/mL (≈ 32.5 µM).
NCC[C@H](O)C(=O)N[C@@H]1C[C@H](N)[C@@H](O[C@H]2O[C@H](CN)CC[C@H]2N)[C@H](O)[C@H]1O showed an MIC [1] of 8 µg/mL (≈ 20.4 µM), an MIC [2] of 4 µg/mL (≈ 10.2 µM) and an MIC [3] of 4 µg/mL (≈ 10.2 µM). It also gave an MIC [4] of 16 µg/mL (≈ 40.9 µM), an MIC [5] of 8 µg/mL (≈ 20.4 µM) and an MIC [6] of 8 µg/mL (≈ 20.4 µM). For the same molecule, the MIC [7] was 2 µg/mL (≈ 5.11 µM), the MIC [8] was 64 µg/mL (≈ 163 µM) and the MIC [9] was 4 µg/mL (≈ 10.2 µM).
With NCC[C@H](O)C(=O)N[C@@H]1C[C@H](N)[C@@H](O[C@H]2O[C@H](CN)CC[C@H]2N)[C@H](O)[C@H]1O[C@H]1O[C@H](CO)[C@@H](O)[C@H](N)[C@H]1O [ARBEKACIN] the MIC [1] was 64 µg/mL (≈ 116 µM), the MIC [2] was 0.5 µg/mL (≈ 0.905 µM) and the MIC [3] was 8 µg/mL (≈ 14.5 µM). The MIC [4] was 8 µg/mL (≈ 14.5 µM), the MIC [5] was 1 µg/mL (≈ 1.81 µM) and the MIC [6] was 4 µg/mL (≈ 7.24 µM). It also gave an MIC [7] of 1 µg/mL (≈ 1.81 µM), an MIC [8] of 4 µg/mL (≈ 7.24 µM) and an MIC [9] of 0.5 µg/mL (≈ 0.905 µM).
For CN[C@@H]1[C@@H](O)[C@@H](O[C@@H]2[C@@H](O)[C@H](O[C@H]3O[C@H]([C@@H](C)NC)CC[C@H]3N)[C@@H](N)C[C@H]2N)OC[C@]1(C)O [GENTAMICIN C1], the MIC [1] was > 128 µg/mL, the MIC [2] was 0.25 µg/mL (≈ 0.523 µM) and the MIC [3] was > 128 µg/mL. For the same molecule, the MIC [4] was 128 µg/mL (≈ 268 µM), the MIC [5] was 0.5 µg/mL (≈ 1.05 µM) and the MIC [6] was 4 µg/mL (≈ 8.38 µM). The MIC [7] was 64 µg/mL (≈ 134 µM), the MIC [8] was 128 µg/mL (≈ 268 µM) and the MIC [9] was 0.25 µg/mL (≈ 0.523 µM).
With CN[C@@H]1[C@@H](O)[C@@H](O[C@@H]2[C@@H](O)[C@H](O[C@H]3O[C@H](C(C)N)CC[C@H]3N)[C@@H](N)C[C@H]2N)OC[C@]1(C)O (stereo not given in full) [GENTAMICIN C2] the MIC [1] was > 128 µg/mL, the MIC [2] was 0.25 µg/mL (≈ 0.539 µM) and the MIC [3] was > 128 µg/mL. The MIC [4] was 128 µg/mL (≈ 276 µM), the MIC [5] was 0.5 µg/mL (≈ 1.08 µM) and the MIC [6] was 4 µg/mL (≈ 8.63 µM). The MIC [7] was 64 µg/mL (≈ 138 µM), the MIC [8] was 128 µg/mL (≈ 276 µM) and the MIC [9] was 0.25 µg/mL (≈ 0.539 µM).
NC[C@@H]1CC[C@@H](N)[C@@H](O[C@H]2[C@H](O)[C@@H](O)[C@H](N)C[C@@H]2N)O1 [GENTAMINE C1A] was tested, and the MIC [1] was > 128 µg/mL, the MIC [2] was 16 µg/mL (≈ 55.1 µM) and the MIC [4] was 64 µg/mL (≈ 220 µM). For the same molecule, the MIC [5] was 32 µg/mL (≈ 110 µM), the MIC [6] was 32 µg/mL (≈ 110 µM) and the MIC [7] was > 128 µg/mL. The MIC [8] was > 128 µg/mL and the MIC [9] was 16 µg/mL (≈ 55.1 µM).
